From publication PMC11232401, “Characterization of antimalarial activity of artemisinin-based hybrid drugs” (Antimicrobial Agents and Chemotherapy, 2024)
Like-named read-outs stand apart in the source and are kept apart here.

Tests used:
[1] = test system: D10 strain of P. falciparum; assay: Host cell-mediated drug degradation: antiplasmodial activity of uRBC supernatants; format: cell-based, Plasmodium falciparum; conditions: uRBC 1.0% hematocrit; for IC50: Plasmodium falciparum, 0.16 h, D10, pLDH, median ± SEM, read-out: IC50 of supernatants harvested at 0.16 h; for Fold changes (24 h/0.16 h): D10
Method: (§1) Each well of 96-well plates was filled with 125 µL drug (1000 nM) and 125 µL uninfected red blood cells (uRBC), which were mixed to obtain a final drug concentration of 500 nM and 2.5% or 1.0% hematocrit. The plates were incubated at 37°C in the standard gas mixture. After each time point (10 min, 6 h, and 24 h), supernatants were carefully harvested and stored at −80°C until use. Untreated uRBC incubated at the same times were used as negative controls, and DHA and AQ were employed as standard drugs. Next, supernatants were diluted in a complete medium in six different dilutions and were aliquoted in new plates. The antimalarial activity of these supernatants and freshly dissolved drugs was determined in an asynchronous parasite culture of P. falciparum (3D7, D10, and W2 strains) for 72 h using the same method described above, and parasite viability was assessed by the pLDH ([38]) and SYBR Green I ([41]) methods. Only the experiments where the IC50 values of the supernatants harvested at 10 min were the same as those of the respective fresh drugs were considered for determining equivalent drug concentration. […] Decay in drug concentration was estimated by using the normalized slope values calculated from linear regression fits using the slope values of a standard curve as reference. Three independent experiments were performed using two replicates.
(§2) Figure S5: Data associated to Figure 3 in the main text of the manuscript. Panel A: Representative response-concentration curves of the antiplasmodial activity of supernatant-derived uRBC (2.5% hematocrit) harvested at indicated times (0.16, 6, and 24 h). Drug activity on parasite viability was determined 72 h after parasite incubation (3D7 strain, asynchronous). Values were subtracted from control (without treatment), transformed, and normalized to calculate nonlinear fit. Parasite viability was determined by SYBR Green I. Values are mean and error bars are the standard deviation of a single experiment, each concentration in duplicate. Panel B: A table summarizing the IC50 values. Footnotes: ^[a] Parasite viability was determined by SYBR Green I. ^[b^] Parasite viability was determined by pLDH readout. Values are median ± SEM of three independent experiments, each concentration in duplicate. ^[c^] […] These values are expressed as mean and 95% confidence interval (CI) of one experiment, each concentration in duplicate. AQ = amodiaquine; DHA = dihydroartemisinin; uRBC = uninfected red blood cells. Unpaired two-tailed t-test at 95% CI: *p <0.05; **p <0.01.

[2] = test system: W2 strain (CQ-resistant) of P. falciparum; assay: as above; format: cell-based, Plasmodium falciparum; conditions: uRBC 1.0% hematocrit; for IC50: Plasmodium falciparum, 0.16 h, W2, pLDH, median ± SEM, read-out: IC50 of supernatants harvested at 0.16 h; for Fold changes (24 h/0.16 h): W2
Method: as §1, §2

[3] = test system: F32-ART (ART-resistant) strain of P. falciparum; assay: Standard chemosensitivity assay (SYBR Green I, 48 h); format: cell-based; conditions: Plasmodium falciparum, F32, 48 h
Method: (§3) Compounds were dissolved in DMSO and diluted in RPMI-1640 medium into five different concentrations (0.1–1000 nM). Each well of 96-well plates was filled with 100 µL drug at each concentration and 100 µL synchronized ring-stages of the ART-resistant strain F32-ART or its ART-susceptible twin strain F32-TEM at final parasitemia of 1% and 2% hematocrit. Plates were incubated for 48 h at 37°C and 5% CO2. The drugs were washed out in 1× phosphate-buffered saline (PBS) (Sigma-Aldrich), the plates were frozen and thawed, and then, the lysed parasites were transferred to black 96-well plates. SYBR Green I (Fisher Scientific, Illkirch, France) at a 2× concentration in a lysis buffer (20 mM TRIS base, pH 7.5, 20 mM EDTA, 0.008% wt/vol saponin, 0.08% wt/vol Triton X-100) was then added and the plates were incubated for 1 h at room temperature in the dark. Fluorescence was measured at 485 nm excitation and 528 nm emission in a VICTOR Nivo plate reader (Perkin Elmer, Waltham, USA) and the IC50s values were then calculated using Prism 7 (GraphPad, San Diego, USA).
(§4) ^[a] Parasites were exposed for 48 h of incubation in the presence of drugs, then parasite viability was determined using SYBR Green I. Mean of two independent experiments. DHA = dihydroartemisinin; SD = standard deviation.

[4] = test system: F32-TEM (ART-sensitive) strain of P. falciparum; assay: as above; format: cell-based; conditions: Plasmodium falciparum, F32, 48 h, read-out: IC50 (nM, mean ± SD) for P. falciparum (48 h), F32-TEM (ART-sensitive)
Method: as §3, §4

[5] = test system: Ring stages of NF54 strain P. falciparum; assay: Antiplasmodial activity of drug combinations (pLDH, isobologram/FIC); format: cell-based; conditions: Plasmodium falciparum, NF54, ring stages NF54; mean (95% CI); tested in parallel with the combination of the same line; read-out: IC50, Drugs alone
Method: The activity of the drug combinations against the P. falciparum NF54 strain was determined as described above. In each experiment, drugs were tested alone and in combination. Twofold serial dilutions of the drug solutions were made using fixed molar ratios of 1:1, 1:3, and 3:1 for each combination and using two technical replicates (ranging from 200 to 1.0 nM). Parasite growth was determined by the pLDH method, as described above. IC50 values for each drug alone or in combination were determined, and an isobologram analysis was performed by plotting the fractional inhibitory concentrations (FIC) for each combination and its component drugs separately. Individual FIC values were calculated as the IC50 of the drug combination divided by the IC50 of the drug in isolation. A dashed line was plotted to indicate any additive effect and distinguish antagonism (above the dashed line) from synergism (below the dashed line). Three independent experiments were performed, each one containing two replicates. Each experiment was used to represent an isobologram analysis [mean and 95% confidence interval (CI)].
Values represent one experiment; each concentration of drug combination was tested in technical duplicate. Black dashed line indicates ΣFIC = 1 (absolute additivity). […] FIC index <1 is synergistic, ~1 is additive, and >1 is antagonistic. Nondetrimental interactions are 0.25 <ΣFIC <1.25.
^[a] Values are the mean and 95% confidence interval of one experiment for each concentration of compounds in duplicate.

P. falciparum Dd2 strain = test system: P. falciparum Dd2 strain; parameters: method as in PMID 31290221, PMID 34832911, PMID 38559731; conditions: asynchronous culture, SYBR Green I; read-out: IC50 (nM, median ± SEM) for P. falciparum Dd2 strain; cited from earlier work
[6] = read-out: IC50 (nM, mean ± SD) for P. falciparum (48 h), F32-ART (ART-resistant)

| SMILES | IC50 [1] [nM] | Fold changes (24 h/0.16 h) [1] | IC50 [2] [nM] | Fold changes (24 h/0.16 h) [2] | IC50 [3, 6] [nM] | IC50 ([3]; read-out: IC50 in the standard chemosensitivity assay) [nM] | IC50 [4] [nM] | IC50 [5] [nM] | IC50 (P. falciparum Dd2 strain) [nM] |
| --- | --- | --- | --- | --- | --- | --- | --- | --- | --- |
| C[C@H]1[C@@H](O)O[C@@H]2O[C@@]3(C)CC[C@H]4[C@H](C)CC[C@@H]1[C@@]24OO3 [DHA, dihydroartemisinin, reference compound] | 3.5 ± 0.43 | 19.9 ± 0.09 | 1.9 ± 0.25 | 15.82 ± 2.21 | 0.8 ± 0.8 | < 5 | 2 ± 0.2 |  |  |
| COCCOCCOCCOCCn1c(-c2ccc(-n3cc(-c4ccc(OC5OC6OC7(C)CCC8C(C)CCC(C5C)C68OO7)cc4)nn3)cc2)nc2ccccc21 (stereo not shown) [Hybrid 1] | 1.8 ± 0.08 | 0.90 ± 0.08 |  | 0.98 ± 0.22 | 4.2 ± 1.3 |  | 2.6 ± 0.6 | 2.2 | 3 ± 0.3 |
| CC1CCC2C(C)C(OC(=O)CCC(=O)OCCNc3ccnc4cc(Cl)ccc34)OC3OC4(C)CCC1C32OO4 (stereo not shown) [Hybrid 2] | 3.7 ± 1.32 | 1.25 ± 0.46 | 4.3 ± 1.74 | 1.38 ± 0.15 | 4.5 ± 2.5 |  | 4.8 ± 1.2 | 4.7 | 2.3 ± 0.6 |
